Article doi:10.1101/2024.12.16.628070v1 (bioRxiv, 2024)
Values after ≈ are worked out from the molar mass of the structure shown. Where two headings read alike, the source gives them in different places. Where no end group is shown, it is not given here.

Assays:
Escherichia coli = assay type: cell-based
Klebsiella pneumoniae = experiment: MIC, broth microdilution; assay type: cell-based
Enterobacter cloacae = experiment: MIC, broth microdilution; assay type: cell-based
Salmonella typhimurium = experiment: MIC, broth microdilution; assay type: cell-based; conditions: strain ATCC 14028
Salmonella entereditis = experiment: MIC, broth microdilution; assay type: cell-based; conditions: strain ATCC 13076
Shigella flexneri = experiment: MIC, broth microdilution; assay type: cell-based; conditions: strain M90T
Acinetobacter baumannii = experiment: MIC, broth microdilution; assay type: cell-based
Pseudomonas aeruginosa = experiment: MIC, broth microdilution; assay type: cell-based
Morganella morganii = experiment: MIC, broth microdilution; assay type: cell-based
Staphylococcus aureus = experiment: MIC, broth microdilution; assay type: cell-based
Bacillus cereus = experiment: MIC, broth microdilution; assay type: cell-based; conditions: strain ATCC 11778
Bacillus subtilis = experiment: MIC, broth microdilution; assay type: cell-based; conditions: strain ATCC 6633
[1] = target: BamA-β (transmembrane β-barrel domain of BamA) (Escherichia coli, UniProt P0A940, C690S/C700S); experiment: Surface Plasmon Resonance affinity to BamA-β in LDAO micelles; assay type: binding
BAM complex = BAM complex (Escherichia coli, UniProt P0A940); experiment: Differential Scanning Fluorimetry of BAM complex in nanodiscs; assay type: binding; conditions: read-out: increase in melting temperature (Tm)
E. coli M6 = assay type: cell-based, Escherichia coli
[2] = Single-dose pharmacokinetic study; assay type: in vivo; conditions: mouse, blood, ip, 50 mg/kg
Enterococcus faecalis = experiment: MIC, broth microdilution; assay type: cell-based; conditions: strain ATCC 29212
[3] = K12 MG1655 BamA F394V, E435K, G443D
[4] = strain ATCC 25922 (WT), broth microdilution, MHB, 18-20 h, 37 °C

Compound: CC(C)[C@@H]1NC(=O)[C@@H](N)Cc2c[nH]c3cc(ccc23)C(C(N)=O)[C@@H](C(=O)N[C@@H](C)C(=O)N[C@H]2Cc3cccc(c3)C(CCNC(=N)N)[C@@H](C(=O)N[C@H]3Cc4c[nH]c5cc(ccc45)C(CCCN)[C@@H](C(=O)N[C@@H](CO)C(=O)N[C@@H](Cc4ccccc4)C(=O)O)NC(=O)[C@H](CO)NC3=O)NC(=O)[C@H](C)NC2=O)NC1=O (stereo partly shown) [Compound 2, xenorceptide A2]
- MIC (Escherichia coli; [3]): 8 µg/mL (≈ 5.36 µM)
- MIC (Escherichia coli; K12 MG1655 BamA G429V, G807V): 8 µg/mL (≈ 5.36 µM)
- MIC (Escherichia coli; MG1655 bamA G429C, generated in the present study): 32 µg/mL (≈ 21.4 µM)
- MIC (Escherichia coli; strain 1 (darobactin-resistant MG1655 strain previously reported)): 8 µg/mL (≈ 5.36 µM)
- MIC (Escherichia coli; strain 2 (darobactin-resistant MG1655 strain previously reported)): 8 µg/mL (≈ 5.36 µM)
- MIC (Escherichia coli; [4]): 2 µg/mL (≈ 1.34 µM)
- MIC (Escherichia coli; strain CRE1006, broth microdilution, MHB, 18-20 h, 37 °C): 4 µg/mL (≈ 2.68 µM)
- MIC (Escherichia coli; strain K12 MG1655 (WT)): 2 µg/mL (≈ 1.34 µM)
- MIC (Escherichia coli; strain M2, broth microdilution, MHB, 18-20 h, 37 °C, repeated three times): 16 µg/mL (≈ 10.7 µM)
- MIC (Escherichia coli; strain M6, broth microdilution, MHB, 18-20 h, 37 °C): 8 µg/mL (≈ 5.36 µM)
- MIC (Escherichia coli; strain M10, broth microdilution, MHB, 18-20 h, 37 °C): 4 µg/mL (≈ 2.68 µM)
- MIC (Escherichia coli; strain M11, broth microdilution, MHB, 18-20 h, 37 °C): 4 µg/mL (≈ 2.68 µM)
- MIC (Klebsiella pneumoniae; strain ATCC 700603): 8 µg/mL (≈ 5.36 µM)
- MIC (Klebsiella pneumoniae; strain CRE1007): 8 µg/mL (≈ 5.36 µM)
- MIC (Klebsiella pneumoniae; strain CRE1008): 8 µg/mL (≈ 5.36 µM)
- MIC (Klebsiella pneumoniae; strain CRE1011): 8 µg/mL (≈ 5.36 µM)
- MIC (Klebsiella pneumoniae; strain CRE1012): 8 µg/mL (≈ 5.36 µM)
- MIC (Klebsiella pneumoniae; strain M7): 64 µg/mL (≈ 42.9 µM)
- MIC (Enterobacter cloacae; strain CRE1010): 4 µg/mL (≈ 2.68 µM)
- MIC (Enterobacter cloacae; strain CRE1014): 16 µg/mL (≈ 10.7 µM)
- MIC (Enterobacter cloacae; strain CRE1015): 32 µg/mL (≈ 21.4 µM)
- MIC (Enterobacter cloacae; strain CRE1016): 16 µg/mL (≈ 10.7 µM)
- MIC (Enterobacter cloacae; strain CRE1017): 32 µg/mL (≈ 21.4 µM)
- MIC (Salmonella typhimurium): 8 µg/mL (≈ 5.36 µM)
- MIC (Salmonella entereditis): 8 µg/mL (≈ 5.36 µM)
- MIC (Shigella flexneri): 2 µg/mL (≈ 1.34 µM)
- MIC (Acinetobacter baumannii; strain ACBA1001): 32 µg/mL (≈ 21.4 µM)
- MIC (Acinetobacter baumannii; strain ACBA1002): 32 µg/mL (≈ 21.4 µM)
- MIC (Acinetobacter baumannii; strain ACBA1003): 32 µg/mL (≈ 21.4 µM)
- MIC (Acinetobacter baumannii; strain ACBA1004): 64 µg/mL (≈ 42.9 µM)
- MIC (Acinetobacter baumannii; strain ATCC 19606): >64 µg/mL
- MIC (Pseudomonas aeruginosa; strain ATCC 9027): 64 µg/mL (≈ 42.9 µM)
- MIC (Pseudomonas aeruginosa; strain DM4150R): 64 µg/mL (≈ 42.9 µM)
- MIC (Pseudomonas aeruginosa; strain DM23376): >64 µg/mL
- MIC (Pseudomonas aeruginosa; strain DR4877/07): 64 µg/mL (≈ 42.9 µM)
- MIC (Pseudomonas aeruginosa; strain DR5790/07): 64 µg/mL (≈ 42.9 µM)
- MIC (Morganella morganii; strain ATCC 25830): 32 µg/mL (≈ 21.4 µM)
- MIC (Morganella morganii; strain CRE1001): 32 µg/mL (≈ 21.4 µM)
- MIC (Staphylococcus aureus; strain ATCC 29737): >64 µg/mL
- MIC (Staphylococcus aureus; strain ATCC 43300): >64 µg/mL
- MIC (Bacillus cereus): >64 µg/mL
- MIC (Bacillus subtilis): >64 µg/mL
- Kd ([1]; KD, steady state response, SPR, BamA-β, concentration range 0.019 µM to 20 µM): ~800 nM
- koff ([1]; read-out: kd (dissociation rate)): 0.0673 s⁻¹
- ΔTm at 20 µM (BAM complex): 3.8 °C
- MIC after resistance development in serial passage (E. coli M6; after 5-7 days of passage): 32 µg/mL (≈ 21.4 µM)
- Tmax [2]: 2 h
- Cmax ([2]; SD): 60.7 µg/mL
- half-life ([2]; SD): 2.4 h

Compound: WINAFANWTKRI (also: bicyclic or more (positions not given here)) [Compound 3, xenorceptide A3]
- MIC (Escherichia coli; [4]): 8 µg/mL
- MIC (Klebsiella pneumoniae; strain ATCC 700603): 8 µg/mL
- MIC (Acinetobacter baumannii; strain ATCC 19606): >64 µg/mL
- MIC (Pseudomonas aeruginosa; strain ATCC 9027): 64 µg/mL
- MIC (Morganella morganii; strain ATCC 25830): 64 µg/mL
- MIC (Staphylococcus aureus; strain ATCC 29737): >64 µg/mL
- MIC (Bacillus subtilis): >64 µg/mL

Compound: WINAFGNWTKSF (also: bicyclic or more (positions not given here)) [Compound 16, xenorceptide A16]
- MIC (Escherichia coli; [4]): >64 µg/mL
- MIC (Klebsiella pneumoniae; strain ATCC 700603): >64 µg/mL
- MIC (Enterobacter cloacae; strain ATCC 13047): >64 µg/mL
- MIC (Acinetobacter baumannii; strain ATCC 19606): >64 µg/mL
- MIC (Staphylococcus aureus; strain ATCC 29737): >64 µg/mL
- MIC (Enterococcus faecalis): >64 µg/mL

Compound: WVNAFAKWTKRI (also: bicyclic or more (positions not given here)) [Compound 11, xenorceptide A11]
- MIC (Escherichia coli; [4]): 4 µg/mL
- MIC (Klebsiella pneumoniae; strain ATCC 700603): 8 µg/mL
- MIC (Enterobacter cloacae; strain ATCC 13047): 8 µg/mL
- MIC (Acinetobacter baumannii; strain ATCC 19606): >64 µg/mL
- MIC (Staphylococcus aureus; strain ATCC 29737): >64 µg/mL
- MIC (Enterococcus faecalis): >64 µg/mL

Compound: WVNAFANWPKRF (also: bicyclic or more (positions not given here)) [Compound 13, xenorceptide A13]
- MIC (Escherichia coli; [4]): 8 µg/mL
- MIC (Klebsiella pneumoniae; strain ATCC 700603): 32 µg/mL
- MIC (Enterobacter cloacae; strain ATCC 13047): >64 µg/mL
- MIC (Acinetobacter baumannii; strain ATCC 19606): >64 µg/mL
- MIC (Staphylococcus aureus; strain ATCC 29737): >64 µg/mL
- MIC (Enterococcus faecalis): >64 µg/mL

Compound: WVNAFANWSKAL (also: bicyclic or more (positions not given here)) [Compound 15, xenorceptide A15]
- MIC (Escherichia coli; [4]): 64 µg/mL
- MIC (Klebsiella pneumoniae; strain ATCC 700603): >64 µg/mL
- MIC (Enterobacter cloacae; strain ATCC 13047): >64 µg/mL
- MIC (Acinetobacter baumannii; strain ATCC 19606): >64 µg/mL
- MIC (Staphylococcus aureus; strain ATCC 29737): >64 µg/mL
- MIC (Enterococcus faecalis): >64 µg/mL

Compound: WVNAFANWSKSF (also: bicyclic or more (positions not given here)) [Compound 6, xenorceptide A6]
- MIC (Escherichia coli; [4]): 64 µg/mL
- MIC (Klebsiella pneumoniae; strain ATCC 700603): >64 µg/mL
- MIC (Acinetobacter baumannii; strain ATCC 19606): >64 µg/mL
- MIC (Pseudomonas aeruginosa; strain ATCC 9027): >64 µg/mL
- MIC (Staphylococcus aureus; strain ATCC 29737): >64 µg/mL

Compound: WVNAFANWTKRF (also: bicyclic or more (positions not given here)) [Compound 8, xenorceptide A8]
- MIC (Escherichia coli; [4]): 2 µg/mL
- MIC (Klebsiella pneumoniae; strain ATCC 700603): 4 µg/mL
- MIC (Acinetobacter baumannii; strain ATCC 19606): >64 µg/mL
- MIC (Pseudomonas aeruginosa; strain ATCC 9027): 64 µg/mL
- MIC (Staphylococcus aureus; strain ATCC 29737): >64 µg/mL

Compound: WVNAFARWDKKF (also: bicyclic or more (positions not given here)) [Compound 7, xenorceptide A7]
- MIC (Escherichia coli; [4]): 64 µg/mL
- MIC (Klebsiella pneumoniae; strain ATCC 700603): >64 µg/mL
- MIC (Acinetobacter baumannii; strain ATCC 19606): >64 µg/mL
- MIC (Pseudomonas aeruginosa; strain ATCC 9027): >64 µg/mL
- MIC (Staphylococcus aureus; strain ATCC 29737): >64 µg/mL

Compound: WVNAFGNWSKSL (also: bicyclic or more (positions not given here)) [Compound 14, xenorceptide A14]
- MIC (Escherichia coli; [4]): 64 µg/mL
- MIC (Klebsiella pneumoniae; strain ATCC 700603): >64 µg/mL
- MIC (Enterobacter cloacae; strain ATCC 13047): 64 µg/mL
- MIC (Acinetobacter baumannii; strain ATCC 19606): >64 µg/mL
- MIC (Staphylococcus aureus; strain ATCC 29737): >64 µg/mL
- MIC (Enterococcus faecalis): >64 µg/mL

Compound: WVNAFVNWPKSF (also: bicyclic or more (positions not given here)) [Compound 5, xenorceptide A5]
- MIC (Escherichia coli; [4]): 16 µg/mL
- MIC (Klebsiella pneumoniae; strain ATCC 700603): 32 µg/mL
- MIC (Acinetobacter baumannii; strain ATCC 19606): >64 µg/mL
- MIC (Pseudomonas aeruginosa; strain ATCC 9027): >64 µg/mL
- MIC (Staphylococcus aureus; strain ATCC 29737): >64 µg/mL

Compound: WVNAYARWTKRF (also: bicyclic or more (positions not given here)) [Compound 12, xenorceptide A12]
- MIC (Escherichia coli; [4]): 4 µg/mL
- MIC (Klebsiella pneumoniae; strain ATCC 700603): 16 µg/mL
- MIC (Enterobacter cloacae; strain ATCC 13047): >64 µg/mL
- MIC (Acinetobacter baumannii; strain ATCC 19606): >64 µg/mL
- MIC (Staphylococcus aureus; strain ATCC 29737): >64 µg/mL
- MIC (Enterococcus faecalis): >64 µg/mL

Compound: WVNAYARWTNRF (also: bicyclic or more (positions not given here)) [Compound 4, xenorceptide A4]
- MIC (Escherichia coli; [4]): 8 µg/mL
- MIC (Klebsiella pneumoniae; strain ATCC 700603): 16 µg/mL
- MIC (Acinetobacter baumannii; strain ATCC 19606): >64 µg/mL
- MIC (Pseudomonas aeruginosa; strain ATCC 9027): >64 µg/mL
- MIC (Morganella morganii; strain ATCC 25830): 64 µg/mL
- MIC (Staphylococcus aureus; strain ATCC 29737): >64 µg/mL
- MIC (Bacillus subtilis): >64 µg/mL

Compound: colistin [reference compound]
- time to development of resistance in serial passage (E. coli M6; sub-inhibitory concentrations, MHB): 3 days

Compound: dynobactin A [reference compound]
- MIC (Escherichia coli; [3]): 16 µg/mL
- MIC (Escherichia coli; K12 MG1655 BamA G429V, G807V): > 128 µg/mL
- MIC (Escherichia coli; [4]): 8 µg/mL
- MIC (Escherichia coli; strain K12 MG1655 (WT)): 16 µg/mL
